# Data reported in PubChem BioAssay (NCI).
#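 48-hour exposure; five concentrations; linearly interpolated endpoints. The concentration for 50% growth inhibition is given as GI50. TGI denotes the concentration required for complete inhibition of growth.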
# Experiments:
# Test in all cases: growth of human tumour cells (NCI), 48 h
# PC-3 prostate = tested on: PC-3 prostate
# A549 NSCLC = tested on: A549 NSCLC
# NCI/ADR-RES ovarian = tested on: NCI/ADR-RES ovarian
# U251 CNS = tested on: U251 CNS
# OVCAR-3 ovarian = tested on: OVCAR-3 ovarian
# UACC-62 melanoma = tested on: UACC-62 melanoma
# A498 renal = tested on: A498 renal
# SF-295 CNS = tested on: SF-295 CNS
SMILES,TGI (PC-3 prostate) [µM],TGI (A549 NSCLC) [µM],TGI (NCI/ADR-RES ovarian) [µM],TGI (U251 CNS) [µM],TGI (OVCAR-3 ovarian) [µM],TGI (UACC-62 melanoma) [µM],TGI (A498 renal) [µM],TGI (SF-295 CNS) [µM],GI50 (PC-3 prostate) [µM],GI50 (A549 NSCLC) [µM],GI50 (NCI/ADR-RES ovarian) [µM],GI50 (U251 CNS) [µM],GI50 (OVCAR-3 ovarian) [µM],GI50 (UACC-62 melanoma) [µM],GI50 (A498 renal) [µM],GI50 (SF-295 CNS) [µM]
COc1ccc2c(c1OC)C(C(Cl)(Cl)Cl)N1CCc3cc4c(cc3C1=C2)OCO4 (configuration not stated),> 100,> 100,> 100,43.1,65.8,30.5,> 100,> 100,–,–,–,–,–,–,–,–
CC([C@H]1CC=C2C3CCC4=C[C@@H](N(C)C)CC[C@]4(C)C3CC[C@@]21C)N(C)C (some centres not stated),7.72,11.1,18.2,15.4,8.74,3.59,13.9,4.35,2.15,3.97,4.25,3.21,2.45,1.75,3.27,1.79
O=C(c1ccco1)c1c(C(F)(F)F)n([O-])c2cc(C(F)(F)F)ccc2[n+]1=O,0.559,1.02,4.33,0.951,3.13,2.89,3.28,2.83,0.163,0.445,0.801,0.46,1.43,1.44,1.53,1.29
COc1cc(C(=O)O[C@H](C(=O)NCCN(C)CCNC(=O)[C@@H](OC(=O)c2cc(OC)cc3c(C)cccc23)[C@]2(C)CO2)[C@]2(C)CO2)c2cccc(C)c2c1,–,–,1.3,0.0139,–,0.338,2.82,0.182,–,–,< 0.0506,< 0.01,–,0.154,0.888,< 0.0337
Cc1[nH]c(N)nc(=S)c1CCC(=O)O,> 100,> 100,> 100,> 100,> 100,> 100,> 100,> 100,–,–,–,–,–,–,–,–
NC(N)=NC(N)=NCCCc1ccco1,> 500,> 500,247,> 500,329,111,> 500,> 500,> 500,> 500,66.4,150,114,37.8,> 500,163
CC(C)=CC(=O)N[C@H]1CC[C@]2(C)C3CC[C@]4(C)C(C(C)N(C)C)=CCC4C3CCC2[C@H]1O (some centres not stated),18.1,22.9,25.5,15.9,15.7,3.77,16.6,9.07,3.88,5.92,10.3,3.89,4.12,1.95,3.82,2.64
C[C@H]1COCCN1c1cc(C2(S(=O)(=O)C3CC3)CC2)nc(-c2ccc(NC(=S)NCCO)cc2)n1,38.7,4.35,47.8,32.2,11.7,0.0883,< 0.0135,0.228,< 0.013,0.0782,1.93,0.0524,0.022,< 0.01,< 0.01,0.0194
CCCCCC[C@@H](C)NC(=O)c1ccc(Nc2nc3ccccc3c3occc23)cc1,> 100,> 100,> 100,> 100,> 100,> 100,7.54,> 100,3.45,3.17,2.53,38.8,2.88,32.8,2.4,4.39
CN(C)CCCC1(c2ccc(F)cc2)OCc2cc(-c3cc4ccccc4s3)ccc21 (configuration not stated),2.99,3.19,3.25,3.02,3.19,3.24,2.92,3.6,1.5,1.73,1.74,1.63,1.67,1.79,1.53,1.91
C=C1C(=O)O[C@H]2[C@H]1CC/C(COC(=O)CCCc1c[nH]c3ccccc13)=C\CC[C@@]1(C)O[C@@H]21,4.62,22.4,10.9,3.67,3.02,3.79,24.3,19,1.92,5.47,2.9,1.95,1.53,1.84,11.9,5.69
Nc1nc(SCc2ccccc2Cl)cc(C(=O)O)n1,> 100,> 100,> 100,> 100,89.2,> 100,> 100,> 100,–,–,–,–,–,–,–,–
C=C1C(=O)O[C@H]2[C@H]1CC/C(Cn1cc(-c3ccc(F)cc3)nn1)=C\CC[C@@]1(C)O[C@@H]21,4.07,12.9,14,4.43,1.69,2.65,3.91,19.1,2,3.37,3.05,2.02,0.491,1.26,1.82,5.73
Cn1c(-c2ccccc2)c(/C=C/C2=[N+](C)c3ccccc3C2(C)C)c2ccccc21,9.16,12.8,72.3,12.8,6.37,3.97,10.9,3.73,0.575,1.73,9.8,0.46,0.664,0.6,1.71,0.775
CC(C)C(=O)c1c(C(F)(F)F)n([O-])c2cc(F)c(F)cc2[n+]1=O,1.13,4.14,0.545,0.43,2.01,1.92,1.33,2.56,0.521,1.38,0.2,0.2,0.667,0.666,0.13,1.19
Nc1ccc(COC(O)CN2CCCCC2)cc1[N+](=O)[O-] (configuration not stated),> 100,> 100,> 100,> 100,> 100,> 100,> 100,> 100,–,–,–,–,–,–,–,–
COC1=CC(c2ccc[nH]2)=N/C1=C\c1[nH]c(C)c(CC(=O)OCc2ccccc2)c1C,10.3,6.05,1.97,1.73,1.41,–,2.3,1.1,0.299,0.361,0.444,0.319,0.31,–,0.433,0.252
COc1ccc(/C=C2\SC(=Nc3ccccc3)NC2=O)cc1,> 100,26.7,> 100,16.3,11.2,> 100,7.34,> 100,7.69,4.74,4.61,3.98,3.67,4.79,1.08,4.6
CC(=O)OC12c3ccccc3-c3ccccc3C1C(C(=O)O)C2C(=O)O (configuration not stated),> 10,–,> 10,> 10,> 10,–,> 10,> 10,–,–,–,–,–,–,–,–
CC(=O)O[C@H]1C(=O)[C@@]2(C)[C@H]([C@H](OC(=O)c3ccccc3)[C@]3(O)C[C@H](OC(=O)[C@H](OC(=O)OC[C@H]4COC(C)(C)O4)[C@@H](NC(=O)c4ccccc4)c4ccccc4)C(C)=C1C3(C)C)[C@]1(OC(C)=O)CO[C@@H]1C[C@@H]2O,> 33.3,> 33.3,> 33.3,> 33.3,0.252,> 33.3,0.499,0.314,0.0305,0.0295,> 33.3,0.0288,0.0109,0.046,0.0545,0.0365
COc1ccc(NC(=O)c2sc3nc(C)c(C(=O)/C=C/c4cccc(OC)c4)cc3c2N)cc1,6.55,9.22,> 50,2.14,2.68,4.11,3.22,> 50,1.56,1.18,1.59,1.01,0.939,1.39,1.08,3.28
COc1ccc(/C(C#N)=C/c2cc(OC)c(OC)c(OC)c2)cc1,67.9,> 100,65.1,> 100,> 100,> 100,> 100,41.9,15.6,23.6,13.2,26.2,33.8,14.1,22.7,15
O=C(Nc1ccccc1-c1nn(CN2CCNCC2)c(=S)n(CN2CCNCC2)c1=O)C(F)(F)F,–,52.4,–,31.7,49.9,32.5,35.3,76.5,–,–,–,–,–,–,–,–
C=CCC1(C(=O)OC(C)(C)C)C(OC)=C(C(=O)OC(C)(C)C)C2C1C(C(=O)OC(C)(C)C)=C(OC)C2(CC=C)C(=O)OC(C)(C)C (configuration not stated),–,> 100,–,–,> 100,> 100,–,> 100,–,–,–,–,–,–,–,–
